Source: patent publication US9265253B2, “Use of macrocyclic picolinamides as fungicides” (DOW AGROSCIENCES LLC, priority 2013, dated 2016)
Like-named read-outs stand apart in the source and are kept apart here.

What was measured:
Format in all cases: in vivo
[1] = test system: Mycosphaerella graminicola; Anamorph: Septoria tritici; assay: Leaf Blotch of Wheat (SEPTTR) disease control; details: for pest or weed control at 121.5 g/ha / pest or weed control at 100 ppm: Zymoseptoria tritici
Method in brief: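 Wheat seedlings (Yuma, first leaf emerged) were sprayed to run-off with compound in acetone/water (1:9, 110 ppm Triton X-100) and inoculated with Septoria tritici spores before or after treatment. Disease severity (0–100%) was scored once untreated first leaves were fully symptomatic; control was calculated relative to untreated plants.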

Phakopsora pachyrhizi = assay: Asian Soybean Rust (PHAKPA) disease control; details: for pest or weed control at 25 ppm: Phakopsora pachyrhizi, topical
Method in brief: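 Compounds in acetone diluted with nine volumes water containing 0.011% Tween 20, sprayed to run-off on two-week-old Williams 82 soybean seedlings, inoculated 3 days before or 1 day after treatment. Plants held 24 h in dark dew room at 22 °C, 100% RH, then at 23 °C; disease severity scored on sprayed leaves.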

Venturia inaequalis = assay: Apple Scab (VENTIN) disease control; details: 1 Day Protectant; for pest or weed control at 100 ppm: Venturia inaequalis, topical, 24 h, read-out: Disease Control VENTIN 1 DP
Method: Technical grades of materials were dissolved in acetone, which were then mixed with nine volumes of water containing 110 ppm Triton X-100. The fungicide solutions were applied onto wheat seedlings using an automated booth sprayer to run-off. All sprayed plants were allowed to air dry prior to further handling. All fungicides were evaluated using the aforementioned method for their activity vs. all target diseases. Wheat leaf blotch and brown rust activity were also evaluated using track spray applications, in which case the fungicides were formulated as EC formulations, containing 0.1% Trycol 5941 in the spray solutions. Wheat plants (variety Yuma) were grown from seed in a greenhouse in 50% mineral soil/50% soil-less Metro mix until the first leaf was fully emerged, with 7-10 seedlings per pot. These plants were inoculated with an aqueous spore suspension of Septoria tritici either prior to or after fungicide treatments. After inoculation the plants were kept in 100% relative humidity (one day in a dark dew chamber followed by two to three days in a lighted dew chamber at 20° C.) to permit spores to germinate and infect the leaf. The plants were then transferred to a greenhouse set at 20° C. for disease to develop. When disease symptoms were fully expressed on the 1st leaves of untreated plants, infection levels were assessed on a scale of 0 to 100 percent disease severity. Percent disease control was calculated using the ratio of disease severity on treated plants relative to untreated plants. Apple seedlings (variety McIntosh) were grown in soil-less Metro mix, with one plant per pot. Seedlings with two expanding young leaves at the top (older leaves at bottom of the plants were trimmed) were used in the test. Plants were inoculated with a spore suspension of Venturia inaequalis 24 hr after fungicide treatment and kept in a 22° C. dew chamber with 100% RH for 48 hr, and then moved to a greenhouse set at 20° C. for disease to develop. Fungicide formulation, application and disease assessment on the sprayed leaves followed the procedures as described in the Example A.

[2] = test system: Puccinia triticina; Synonym: Puccinia recondite f. Sp. Tritici; assay: Wheat Brown Rust (PUCCRT) disease control; details: for pest or weed control at 121.5 g/ha / pest or weed control at 100 ppm: Puccinia triticina, topical
Method in brief: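 Brown rust on first-leaf Yuma wheat: spore inoculation before or after spray application (acetone/Triton X-100 solution, or EC with Trycol in track spray), overnight 100% RH at 22 °C, disease developed at 24 °C. Severity scored 0–100% and converted to percent control against untreated.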

[3] = test system: Magnaporthe grisea; Anamorph: Pyricularia oryzae; assay: whole plant or invertebrate; details: for pest or weed control at 100 ppm: Pyricularia oryzae, topical, 24 h, read-out: Disease Control PYRIOR 1 DP
[4] = 24 h, 1 Day Protectant, rate 121.5 g/H, read-out: SEPTTR 1 DP disease control
[5] = 72 h, 3 Day Curative, rate 121.5 g/H, read-out: SEPTTR 3 DC disease control
[6] = 24 h, 1 Day Protectant, read-out: Disease Control PHAKPA 1DP
[7] = 24 h, 1 Day Protectant, rate 121.5 g/H, read-out: PUCCRT 1 DP disease control
[8] = 1 Day Protectant, rate 121.5 g/H
[9] = 24 h, 1 Day Protectant, rate 100 ppm, read-out: SEPTTR 1 DP disease control
[10] = 72 h, 3 Day Curative, rate 100 ppm, read-out: SEPTTR 3 DC disease control
[11] = 72 h, 3 Day Curative, read-out: Disease Control PHAKPA 3DC
[12] = 24 h, 1 Day Protectant, rate 100 ppm, read-out: PUCCRT 1 DP disease control
[13] = 72 h, 3 Day Curative, rate 100 ppm, read-out: PUCCRT 3 DC disease control
[14] = 72 h, 3 Day Curative, rate 121.5 g/H, read-out: PUCCRT 3 DC disease control

Compound | pest or weed control at 121.5 g/ha [1, 4] | pest or weed control at 121.5 g/ha [1, 5] | pest or weed control at 25 ppm (Phakopsora pachyrhizi; [6]) | pest or weed control at 100 ppm (Venturia inaequalis) | pest or weed control at 121.5 g/ha [2, 7] | pest or weed control at 100 ppm [1, 9] | pest or weed control at 100 ppm [1, 10] | pest or weed control at 25 ppm (Phakopsora pachyrhizi; [11]) | pest or weed control at 100 ppm [3] | pest or weed control at 100 ppm [2, 12] | pest or weed control at 100 ppm [2, 13] | pest or weed control at 121.5 g/ha [2, 14] | also measured
COc1ccnc(C(=O)N[C@H]2CCC[C@H](Cc3ccc(F)cc3F)[C@@H](OC(=O)c3ccco3)[C@H](C)OC2=O)c1OCOC(C)=O [Compound F144] | 80 to 100% | 0 to 80% | 0 to 80% | 80 to 100% | 80 to 100% |  |  |  |  |  |  |  | 
COc1ccnc(C(=O)N[C@H]2CCC[C@H](Cc3ccc(F)cc3)[C@@H](OCC3CC3)[C@H](C)OC2=O)c1OCOC(C)=O [Compound F98] |  |  |  |  |  |  |  |  |  |  |  |  | SEPTTR 1 DP disease control ([1]; 1 Day Protectant, rate 100 ppm): A (80-100); SEPTTR 1 DP disease control [1, 8]: A (80-100); SEPTTR 3 DC disease control ([1]; 3 Day Curative, rate 100 ppm): A (80-100); SEPTTR 3 DC disease control ([1]; 3 Day Curative, rate 121.5 g/H): A (80-100); Disease Control PHAKPA 1DP (Phakopsora pachyrhizi; 25 ppm, 1 Day Protectant): A (80-100); Disease Control PHAKPA 3DC (Phakopsora pachyrhizi; 25 ppm, 3 Day Curative): A (80-100); Disease Control VENTIN 1 DP (Venturia inaequalis; 100 ppm): B (More than 0-Less than 80); Disease Control PYRIOR 1 DP ([3]; 100 ppm, 1 Day Protectant, Rice Blast): A (80-100); PUCCRT 1 DP disease control ([2]; 1 Day Protectant, rate 100 ppm): A (80-100); PUCCRT 1 DP disease control [2, 8]: A (80-100); PUCCRT 3 DC disease control ([2]; 3 Day Curative, rate 100 ppm): A (80-100); PUCCRT 3 DC disease control ([2]; 3 Day Curative, rate 121.5 g/H): A (80-100)
CCOCC(=O)OCOc1c(OC)ccnc1C(=O)N[C@H]1CCC[C@H](CCOC)[C@@H](Oc2ccccc2)[C@H](C)OC1=O [Compound F183] | 80 to 100% | 80 to 100% | 80 to 100% | 0 to 80% | 80 to 100% | 80 to 100% | 80 to 100% | 80 to 100% | 80 to 100% | 80 to 100% | 80 to 100% | 80 to 100% | 
COc1ccnc(C(=O)N[C@H]2CCC[C@H](Cc3ccc(F)cc3F)[C@@H](OC(=O)c3ccco3)[C@H](C)OC2=O)c1OCOC(=O)C(C)C [Compound F157] | 80 to 100% |  | 0 to 80% | 0 to 80% | 80 to 100% |  |  |  |  |  |  | 0 to 80% | 
CCCO[C@@H]1[C@@H](Cc2ccccc2)CCC[C@H](NC(=O)c2nccc(OC)c2OCOC(C)=O)C(=O)O[C@H]1C [Compound F109] | 80 to 100% | 80 to 100% | 80 to 100% | 80 to 100% | 80 to 100% | 80 to 100% | 80 to 100% | 0 to 80% | 80 to 100% | 80 to 100% | 80 to 100% | 80 to 100% | 
C=C[C@H]1CCC[C@H](NC(=O)c2nccc(OC)c2OC(C)=O)C(=O)O[C@@H](C)[C@@H]1Oc1ccccc1 [Compound F86] | 80 to 100% | 80 to 100% | 80 to 100% | 0 to 80% | 80 to 100% |  |  | 0 to 80% | 80 to 100% |  |  | 80 to 100% | 
CCOCC(=O)OCOc1c(OC)ccnc1C(=O)N[C@H]1CCC[C@H](Cc2ccccc2)[C@@H](OCC(C)C)[C@H](C)OC1=O [Compound F172] | 80 to 100% | 80 to 100% | 80 to 100% | 0 to 80% | 80 to 100% | 80 to 100% | 80 to 100% | 0 to 80% | 80 to 100% | 80 to 100% | 80 to 100% | 80 to 100% | 
C=C[C@H]1CCC[C@H](NC(=O)c2nccc(OC)c2OCOC(C)=O)C(=O)O[C@@H](C)[C@@H]1Oc1ccccc1 [Compound F146] | 80 to 100% | 80 to 100% | 80 to 100% | 80 to 100% | 80 to 100% |  |  | 80 to 100% | 80 to 100% |  |  | 80 to 100% | 
COc1ccnc(C(=O)N[C@H]2CCC[C@H](Cc3ccccc3)[C@@H](OCC(C)C)[C@H](C)OC2=O)c1OC(C)=O [Compound F70] | 80 to 100% | 80 to 100% | 80 to 100% | 0 to 80% | 80 to 100% | 80 to 100% | 80 to 100% | 0 to 80% | 80 to 100% | 80 to 100% | 80 to 100% | 80 to 100% | 
COCC[C@H]1CCC[C@H](NC(=O)c2nccc(OC)c2OC(C)=O)C(=O)O[C@@H](C)[C@@H]1Oc1ccccc1 [Compound F78] | 80 to 100% | 80 to 100% | 80 to 100% | 0 to 80% | 80 to 100% | 80 to 100% | 80 to 100% | 80 to 100% | 80 to 100% | 80 to 100% | 80 to 100% | 80 to 100% | 
COc1ccnc(C(=O)N[C@H]2CCC[C@H](Cc3ccccc3)[C@@H](OC3CCCC3)[C@H](C)OC2=O)c1OCOC(C)=O [Compound F110] | 80 to 100% | 80 to 100% |  | 0 to 80% | 80 to 100% | 80 to 100% | 80 to 100% |  | 80 to 100% | 80 to 100% | 80 to 100% | 80 to 100% | 
COc1ccnc(C(=O)N[C@H]2CCC[C@H](Cc3ccccc3)[C@@H](Oc3ccccc3)[C@H](C)OC2=O)c1OCOC(C)=O [Compound F108] | 80 to 100% | 80 to 100% |  | 0 to 80% | 80 to 100% | 80 to 100% | 80 to 100% |  | 80 to 100% | 80 to 100% | 80 to 100% | 0 to 80% | 
COc1ccnc(C(=O)N[C@H]2CCC[C@H](Cc3ccc(F)cc3F)[C@@H](OCC(C)C)[C@H](C)OC2=O)c1OCOC(C)=O [Compound F145] | 80 to 100% | 80 to 100% | 80 to 100% | 80 to 100% | 80 to 100% |  |  | 0 to 80% |  |  |  | 80 to 100% | 
